Measurements taken from paper PMC8039949, “A novel small-molecule PROTAC selectively promotes tau clearance to improve cognitive functions in Alzheimer-like models” (Theranostics, 2021).
Peptide text beside a SMILES is read from it. * marks the point of attachment. Cbz = O=C(OCc1ccccc1)*

Target: T1, human tau (hTau) (Homo sapiens, UniProt P10636)
T1 construct: expressed in transfected cells
Test: Tau clearance in HEK293-hTau cells by Western blotting
Type: cell-based
Conditions: HEK293-hTau cells; 10 μM MG132 with 20 μM C004019; 24 h
Method: SH-SY5Y human neuroblastoma cells were cultured in 90% DME/F-12 medium (HyClone, SH30023.01) with 10% fetal bovine serum (FBS) (Biological Industries, 04-001-1ACS) and penicillin (100 U/mL)/ streptomycin (100 μg/mL) in a 37 °C incubator with humidified atmosphere of 5% CO2. Human embryonic kidney 293 cells (HEK293) or HEK293 with stable expression of wild-type full-length human tau (termed as HEK293-hTau) were cultured in 90% DMEM/High Glucose medium (HyClone, SH30022.01) containing 10% FBS and 200 μg/mL G418 (ThermoFisher Scientific, 10131027), in a humidified atmosphere of 5% CO2 at 37 °C. Neofect (DNA transfection reagent, TF20121201) was used for plasmids transfection. The cells were placed onto 6-well or 12-well plates. Plasmids (EGFP-hTau or 3xFlag-hTau or the vector), neofect and Opti-MEM medium (Gibco, 31985-070) were made into a mixture in a ratio of 1 μg: 1 μL : 100 μL and then added into each well of the plate. To inhibit proteasome activity, HEK293-hTau cells were cultured with DMEM/High medium containing 20 μM C004019 with or without 10 μM MG132, or the same volume of vehicle (DMSO) for 24 h at 37 °C. To induce tau hyperphosphorylation, SH-SY5Y cells were cultured with DME/F-12 medium containing 10 μM C004019 with or without 1 μM GFX and 1 μM WO for 24 h at 37 °C.
The cells or hippocampal/cortex tissues were homogenized for ~ 30 min on ice in buffer [50 mM Tris·HCl pH 7.4-7.5, 100 mM NaCl, 1% (vol/vol) Triton X-100, 5 mM EDTA, 1:100 PMSF, 1:1,000 protease inhibitor cocktail containing 4-(2-Aminoethyl)-benzenesulfonyl fluoride hydrochloride, aprotinin, bestatin, leupeptin, E-64, and pepstatin A stored at 4 °C], and then centrifuged at 12,000 × g at 4 °C for 20 min. The supernatant was collected and the protein levels were analyzed using bicinchoninic acid (BCA, KF016, Sigma-Aldrich) by following the manufacturer's instruction (served as soluble protein). The pellet was further incubated with 8% (wt/vol) SDS buffer at 4 °C and then treated by ultrasonic wave to reach a complete resuspension. […] Immunoreactive bands were quantitatively analyzed by Image J2x software.

T1 sequence (P10636 1-441 isoform P10636-8): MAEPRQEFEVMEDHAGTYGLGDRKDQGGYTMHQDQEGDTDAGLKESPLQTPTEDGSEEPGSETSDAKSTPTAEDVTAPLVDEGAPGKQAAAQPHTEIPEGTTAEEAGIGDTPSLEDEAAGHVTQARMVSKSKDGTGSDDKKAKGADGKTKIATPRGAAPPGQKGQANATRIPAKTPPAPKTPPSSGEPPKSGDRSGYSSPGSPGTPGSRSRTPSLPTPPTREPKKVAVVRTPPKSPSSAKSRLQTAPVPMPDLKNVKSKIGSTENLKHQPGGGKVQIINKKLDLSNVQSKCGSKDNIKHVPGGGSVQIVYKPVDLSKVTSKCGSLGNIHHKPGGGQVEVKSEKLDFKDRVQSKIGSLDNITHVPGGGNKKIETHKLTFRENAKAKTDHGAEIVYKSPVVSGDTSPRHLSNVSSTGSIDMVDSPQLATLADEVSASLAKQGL

Structure (SMILES): CC(C)C[C@@H](C=O)NC(=O)[C@H](CC(C)C)NC(=O)[C@H](CC(C)C)NC(=O)OCc1ccccc1 [MG132, reference compound] (Cbz-Leu-Leu-Leu-aldehyde)
- effect on C004019-induced clearance of tau (proteasome inhibition): abolished
